Source: BindingDB's records for doi:10.1016/S0960-894X(96)00248-X (1996)
pIC50: −log10 of the molar value.

Experiment: Inhibitory activity against gastrin receptor

Row | SMILES | pIC50
1 | Cc1cccc(NC(=O)NC2N=C(c3cccc(OCC(=O)NCCCOc4cccc(CN5CCCCC5)c4)c3)c3ccccc3N(C)C2=O)c1 (stereo not given) [2-{3-[1-Methyl-2-oxo-3-(3-m-tolyl-ureido)-2,3-dihydro-1H-benzo[e][1,4]diazepin-5-yl]-phenoxy}-N-[3-(3-piperidin-1-ylmethyl-phenoxy)-propyl]-acetamide] | 6.24
2 | CN1C(=O)[C@H](NC(=O)Nc2cccc(CC(=O)NCCCOc3cccc(CN4CCCCC4)c3)c2)N=C(c2ccccc2)c2ccccc21 [2-{3-[3-((R)-1-Methyl-2-oxo-5-phenyl-2,3-dihydro-1H-benzo[e][1,4]diazepin-3-yl)-ureido]-phenyl}-N-[3-(3-piperidin-1-ylmethyl-phenoxy)-propyl]-acetamide] | 6.64
3 | CN1C(=O)[C@H](NC(=O)Nc2cccc(CC(=O)NCCCC(=O)NCCCOc3cccc(CN4CCCCC4)c3)c2)N=C(c2ccccc2)c2ccccc21 [4-(2-{3-[3-((R)-1-Methyl-2-oxo-5-phenyl-2,3-dihydro-1H-benzo[e][1,4]diazepin-3-yl)-ureido]-phenyl}-acetylamino)-N-[3-(3-piperidin-1-ylmethyl-phenoxy)-propyl]-butyramide] | 6.94
4 | CN1C(=O)[C@H](NC(=O)Nc2cccc(C(=O)NCCCOc3cccc(CN4CCCCC4)c3)c2)N=C(c2ccccc2)c2ccccc21 [3-[3-((R)-1-Methyl-2-oxo-5-phenyl-2,3-dihydro-1H-benzo[e][1,4]diazepin-3-yl)-ureido]-N-[3-(3-piperidin-1-ylmethyl-phenoxy)-propyl]-benzamide] | 6.26
5 | Cc1cccc(NC(=O)NC2N=C(c3cccc(OCC(=O)NCCSCc4csc(N=C(N)N)n4)c3)c3ccccc3N(C)C2=O)c1 (stereo not given) [N-[2-(2-Guanidino-thiazol-4-ylmethylsulfanyl)-ethyl]-2-{3-[1-methyl-2-oxo-3-(3-m-tolyl-ureido)-2,3-dihydro-1H-benzo[e][1,4]diazepin-5-yl]-phenoxy}-acetamide] | 6.87
6 | CN1C(=O)[C@H](NC(=O)Nc2cccc(CC(=O)NCCC(=O)NCCCOc3cccc(CN4CCCCC4)c3)c2)N=C(c2ccccc2)c2ccccc21 [3-(2-{3-[3-((R)-1-Methyl-2-oxo-5-phenyl-2,3-dihydro-1H-benzo[e][1,4]diazepin-3-yl)-ureido]-phenyl}-acetylamino)-N-[3-(3-piperidin-1-ylmethyl-phenoxy)-propyl]-propionamide] | 6.87
7 | Cc1cccc(NC(=O)NC2N=C(c3ccccc3)c3ccccc3N(CC(=O)NCC(=O)NCCSCc3csc(N=C(N)N)n3)C2=O)c1 (stereo not given) [N-{[2-(2-Guanidino-thiazol-4-ylmethylsulfanyl)-ethylcarbamoyl]-methyl}-2-[2-oxo-5-phenyl-3-(3-m-tolyl-ureido)-2,3-dihydro-benzo[e][1,4]diazepin-1-yl]-acetamide] | 6.43
8 | Cc1cccc(NC(=O)NC2N=C(c3cccc(OCC(=O)NCC(=O)NCCCOc4cccc(CN5CCCCC5)c4)c3)c3ccccc3N(C)C2=O)c1 (stereo not given) [2-{3-[1-Methyl-2-oxo-3-(3-m-tolyl-ureido)-2,3-dihydro-1H-benzo[e][1,4]diazepin-5-yl]-phenoxy}-N-{[3-(3-piperidin-1-ylmethyl-phenoxy)-propylcarbamoyl]-methyl}-acetamide] | 7.20
9 | CN1C(=O)[C@H](NC(=O)Nc2cccc(CC(=O)NCCSCc3csc(N=C(N)N)n3)c2)N=C(c2ccccc2)c2ccccc21 [N-[2-(2-Guanidino-thiazol-4-ylmethylsulfanyl)-ethyl]-2-{3-[3-((R)-1-methyl-2-oxo-5-phenyl-2,3-dihydro-1H-benzo[e][1,4]diazepin-3-yl)-ureido]-phenyl}-acetamide] | 6.77
10 | Cc1cccc(NC(=O)NC2N=C(c3ccccc3)c3ccccc3N(CC(=O)NCCCOc3cccc(CN4CCCCC4)c3)C2=O)c1 (stereo not given) [2-[2-Oxo-5-phenyl-3-(3-m-tolyl-ureido)-2,3-dihydro-benzo[e][1,4]diazepin-1-yl]-N-[3-(3-piperidin-1-ylmethyl-phenoxy)-propyl]-acetamide] | 6.81
11 | Cc1cccc(NC(=O)NC2N=C(c3ccccc3)c3ccccc3N(CC(=O)NCCSCc3csc(N=C(N)N)n3)C2=O)c1 (stereo not given) [N-[2-(2-Guanidino-thiazol-4-ylmethylsulfanyl)-ethyl]-2-[2-oxo-5-phenyl-3-(3-m-tolyl-ureido)-2,3-dihydro-benzo[e][1,4]diazepin-1-yl]-acetamide] | 8.52
12 | Cc1cccc(NC(=O)NC2N=C(c3cccc(OCC(=O)NCCCC(=O)NCCCOc4cccc(CN5CCCCC5)c4)c3)c3ccccc3N(C)C2=O)c1 (stereo not given) [4-(2-{3-[1-Methyl-2-oxo-3-(3-m-tolyl-ureido)-2,3-dihydro-1H-benzo[e][1,4]diazepin-5-yl]-phenoxy}-acetylamino)-N-[3-(3-piperidin-1-ylmethyl-phenoxy)-propyl]-butyramide] | 7.22
13 | Cc1cccc(NC(=O)NC2N=C(c3ccccc3)c3ccccc3N(CC(=O)NCCC(=O)NCCCOc3cccc(CN4CCCCC4)c3)C2=O)c1 (stereo not given) [3-{2-[2-Oxo-5-phenyl-3-(3-m-tolyl-ureido)-2,3-dihydro-benzo[e][1,4]diazepin-1-yl]-acetylamino}-N-[3-(3-piperidin-1-ylmethyl-phenoxy)-propyl]-propionamide] | 6.73
14 | Cc1cccc(NC(=O)NC2N=C(c3cccc(OCC(=O)NCCC(=O)NCCCOc4cccc(CN5CCCCC5)c4)c3)c3ccccc3N(C)C2=O)c1 (stereo not given) [3-(2-{3-[1-Methyl-2-oxo-3-(3-m-tolyl-ureido)-2,3-dihydro-1H-benzo[e][1,4]diazepin-5-yl]-phenoxy}-acetylamino)-N-[3-(3-piperidin-1-ylmethyl-phenoxy)-propyl]-propionamide] | 6.70

Further lines, results first:

Row | pIC50 | SMILES
15 | 6.68 | Cc1cccc(NC(=O)NC2N=C(c3ccccc3)c3ccccc3N(CC(=O)NCCCC(=O)NCCCOc3cccc(CN4CCCCC4)c3)C2=O)c1 (stereo not given) [4-{2-[2-Oxo-5-phenyl-3-(3-m-tolyl-ureido)-2,3-dihydro-benzo[e][1,4]diazepin-1-yl]-acetylamino}-N-[3-(3-piperidin-1-ylmethyl-phenoxy)-propyl]-butyramide]
16 | 7.85 | Cc1cccc(NC(=O)NC2N=C(c3cccc(OCC(=O)NCCCC(=O)NCCSCc4csc(N=C(N)N)n4)c3)c3ccccc3N(C)C2=O)c1 (stereo not given) [N-[2-(2-Guanidino-thiazol-4-ylmethylsulfanyl)-ethyl]-4-(2-{3-[1-methyl-2-oxo-3-(3-m-tolyl-ureido)-2,3-dihydro-1H-benzo[e][1,4]diazepin-5-yl]-phenoxy}-acetylamino)-butyramide]
17 | 6.72 | Cc1cccc(NC(=O)NC2N=C(c3ccccc3)c3ccccc3N(CC(=O)NCCCC(=O)NCCSCc3csc(N=C(N)N)n3)C2=O)c1 (stereo not given) [N-[2-(2-Guanidino-thiazol-4-ylmethylsulfanyl)-ethyl]-4-{2-[2-oxo-5-phenyl-3-(3-m-tolyl-ureido)-2,3-dihydro-benzo[e][1,4]diazepin-1-yl]-acetylamino}-butyramide]
18 | 7.92 | Cc1cccc(NC(=O)NC2N=C(c3cccc(OCC(=O)NCC(=O)NCCSCc4csc(N=C(N)N)n4)c3)c3ccccc3N(C)C2=O)c1 (stereo not given) [N-{[2-(2-Guanidino-thiazol-4-ylmethylsulfanyl)-ethylcarbamoyl]-methyl}-2-{3-[1-methyl-2-oxo-3-(3-m-tolyl-ureido)-2,3-dihydro-1H-benzo[e][1,4]diazepin-5-yl]-phenoxy}-acetamide]
19 | 6.62 | CN1C(=O)[C@H](NC(=O)Nc2cccc(CC(=O)NCCCC(=O)NCCSCc3csc(N=C(N)N)n3)c2)N=C(c2ccccc2)c2ccccc21 [N-[2-(2-Guanidino-thiazol-4-ylmethylsulfanyl)-ethyl]-4-(2-{3-[3-((R)-1-methyl-2-oxo-5-phenyl-2,3-dihydro-1H-benzo[e][1,4]diazepin-3-yl)-ureido]-phenyl}-acetylamino)-butyramide]
20 | 7.10 | CN1C(=O)[C@H](NC(=O)Nc2cccc(CC(=O)NCCC(=O)NCCSCc3csc(N=C(N)N)n3)c2)N=C(c2ccccc2)c2ccccc21 [N-[2-(2-Guanidino-thiazol-4-ylmethylsulfanyl)-ethyl]-3-(2-{3-[3-((R)-1-methyl-2-oxo-5-phenyl-2,3-dihydro-1H-benzo[e][1,4]diazepin-3-yl)-ureido]-phenyl}-acetylamino)-propionamide]
21 | 7.80 | Cc1cccc(NC(=O)NC2N=C(c3ccccc3)c3ccccc3N(CC(=O)NCCCCCC(=O)NCCCOc3cccc(CN4CCCCC4)c3)C2=O)c1 (stereo not given) [6-{2-[2-Oxo-5-phenyl-3-(3-m-tolyl-ureido)-2,3-dihydro-benzo[e][1,4]diazepin-1-yl]-acetylamino}-hexanoic acid [3-(3-piperidin-1-ylmethyl-phenoxy)-propyl]-amide]
22 | 7.35 | CN1C(=O)[C@H](NC(=O)Nc2cccc(CC(=O)NCCCCCC(=O)NCCSCc3csc(N=C(N)N)n3)c2)N=C(c2ccccc2)c2ccccc21 [6-(2-{3-[3-((R)-1-Methyl-2-oxo-5-phenyl-2,3-dihydro-1H-benzo[e][1,4]diazepin-3-yl)-ureido]-phenyl}-acetylamino)-hexanoic acid [2-(2-guanidino-thiazol-4-ylmethylsulfanyl)-ethyl]-amide]
23 | 6.96 | CN1C(=O)[C@H](NC(=O)Nc2cccc(CC(=O)NCCCCCC(=O)NCCCOc3cccc(CN4CCCCC4)c3)c2)N=C(c2ccccc2)c2ccccc21 [6-(2-{3-[3-((R)-1-Methyl-2-oxo-5-phenyl-2,3-dihydro-1H-benzo[e][1,4]diazepin-3-yl)-ureido]-phenyl}-acetylamino)-hexanoic acid [3-(3-piperidin-1-ylmethyl-phenoxy)-propyl]-amide]
24 | 7.12 | Cc1cccc(NC(=O)NC2N=C(c3ccccc3)c3ccccc3N(CC(=O)NCCC(=O)NCCSCc3csc(N=C(N)N)n3)C2=O)c1 (stereo not given) [N-[2-(2-Guanidino-thiazol-4-ylmethylsulfanyl)-ethyl]-3-{2-[2-oxo-5-phenyl-3-(3-m-tolyl-ureido)-2,3-dihydro-benzo[e][1,4]diazepin-1-yl]-acetylamino}-propionamide]
25 | 7.60 | Cc1cccc(NC(=O)NC2N=C(c3cccc(OCC(=O)NCCC(=O)NCCSCc4csc(N=C(N)N)n4)c3)c3ccccc3N(C)C2=O)c1 (stereo not given) [N-[2-(2-Guanidino-thiazol-4-ylmethylsulfanyl)-ethyl]-3-(2-{3-[1-methyl-2-oxo-3-(3-m-tolyl-ureido)-2,3-dihydro-1H-benzo[e][1,4]diazepin-5-yl]-phenoxy}-acetylamino)-propionamide]
